Results reported in PubChem BioAssay AID248 (DTP/NCI, 2004).
Values joined by “and” are separate entries in the source; they are usually repeats but may differ in a detail not shown here. Equal entries are not always repeated. Inconclusive results and toxic doses are left out.

System: L1210 leukemia ip in BDF1 mice, survival T/C
Assay: NCI In Vivo Anticancer Drug Screen. Data for tumor model L1210 Leukemia (intraperitoneal) in B6D2F1 (BDF1) mice
Settings: endpoint: mean survival time, higher = longer survival
How it was run: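 Each compound was tested against a transplantable tumor grown in mice. The endpoint was survival, with treated animals benchmarked against vehicle controls as a simple ratio.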

[1] = dose: 100.0 mg/kg/injection, schedule: Q04DX003 (ip), vehicle: Klucel (hydroxypropylcellulose) (HPC)
[2] = dose: 200.0 mg/kg/injection, schedule: Q04DX003 (ip), vehicle: Klucel (hydroxypropylcellulose) (HPC)
[3] = dose: 400.0 mg/kg/injection, schedule: Q01DX009 (ip), vehicle: Klucel (hydroxypropylcellulose) (HPC)
[4] = dose: 400.0 mg/kg/injection, schedule: Q04DX003 (ip), vehicle: Klucel (hydroxypropylcellulose) (HPC)
[5] = dose: 100.0 mg/kg/injection, schedule: Q01DX001 (ip), vehicle: saline with Tween-80
[6] = dose: 200.0 mg/kg/injection, schedule: Q01DX001 (ip), vehicle: saline with Tween-80
[7] = dose: 400.0 mg/kg/injection, schedule: Q01DX001 (ip), vehicle: saline with Tween-80
[8] = dose: 100.0 mg/kg/injection, schedule: Q04DX003 (ip), vehicle: saline with Tween-80
[9] = dose: 200.0 mg/kg/injection, schedule: Q04DX003 (ip), vehicle: saline with Tween-80
[10] = dose: 12.5 mg/kg/injection, schedule: Q01DX009 (ip), vehicle: Klucel (hydroxypropylcellulose) (HPC)
[11] = dose: 25.0 mg/kg/injection, schedule: Q01DX009 (ip), vehicle: Klucel (hydroxypropylcellulose) (HPC)
[12] = dose: 100.0 mg/kg/injection, schedule: Q01DX001 (ip), vehicle: saline
[13] = dose: 200.0 mg/kg/injection, schedule: Q01DX001 (ip), vehicle: saline

`C=C(C)Cc1c(C)c(C)c(OS(=O)(=O)c2ccc(Br)cc2)c(C)c1C` was tested, and the T/C (dose: 50.0 mg/kg/injection, schedule: Q04DX003 (ip), vehicle: gum acacia) was 89 % of control, the T/C (dose: 100.0 mg/kg/injection, schedule: Q04DX003 (ip), vehicle: gum acacia) was 89 % of control and the T/C (dose: 200.0 mg/kg/injection, schedule: Q04DX003 (ip), vehicle: gum acacia) was 91 % of control.

With `S=C(Nc1ccc(Cl)cc1)Nc1ccc(Cc2ccc(NC(=S)Nc3ccc(Cl)cc3)cc2)cc1` the T/C (dose: 100.0 mg/kg/injection, schedule: Q04DX002 (ip), vehicle: Klucel (hydroxypropylcellulose) (HPC)) was 113 % of control, the T/C (dose: 200.0 mg/kg/injection, schedule: Q04DX002 (ip), vehicle: Klucel (hydroxypropylcellulose) (HPC)) was 106 % of control and the T/C (dose: 400.0 mg/kg/injection, schedule: Q04DX002 (ip), vehicle: Klucel (hydroxypropylcellulose) (HPC)) was 92 % of control.

`O=C(c1ccccc1)C1C(c2ccccc2)N1C(=O)c1ccccc1` (stereo unspecified) was tested, and the T/C (dose: 100.0 mg/kg/injection, schedule: Q01DX009 (ip), vehicle: Klucel (hydroxypropylcellulose) (HPC)) was 94 % of control, the T/C [1] was 102 % of control and the T/C (dose: 200.0 mg/kg/injection, schedule: Q01DX009 (ip), vehicle: Klucel (hydroxypropylcellulose) (HPC)) was 101 % of control. For the same compound, the T/C [2] was 90 % of control, the T/C [3] was 89 % of control and the T/C [4] was 90 % of control.

For `CCNS(=O)(=O)c1ccc(C(N)=S)cc1`, the T/C [5] was 100 % of control, the T/C [6] was 97 % of control and the T/C [7] was 98 % of control.

In the case of `Cc1cc(N(CCCl)CCCl)ccc1C=Nc1ccc(S(N)(=O)=O)cc1`, the T/C (dose: 50.0 mg/kg/injection, schedule: Q01DX001 (ip), vehicle: carboxymethylcellulose (CMC)) is reported as 95 % of control, the T/C (dose: 100.0 mg/kg/injection, schedule: Q01DX001 (ip), vehicle: carboxymethylcellulose (CMC)) is reported as 104 % of control and the T/C (dose: 200.0 mg/kg/injection, schedule: Q01DX001 (ip), vehicle: carboxymethylcellulose (CMC)) is reported as 101 % of control. For the same compound, the T/C (dose: 400.0 mg/kg/injection, schedule: Q01DX001 (ip), vehicle: carboxymethylcellulose (CMC)) was 104 % of control.

In the case of `OCC1OC(c2ccccc2)OC(CO)C(O)C1O` (stereo unspecified), the T/C [8] is reported as 88 % of control and the T/C [9] is reported as 88 % of control.

For `Nc1cccc(CSc2nc3nc[nH]c3c(=O)[nH]2)c1`, the T/C (dose: 25.0 mg/kg/injection, schedule: Q01DX001 (ip), vehicle: Klucel (hydroxypropylcellulose) (HPC)) was 102 % of control, the T/C (dose: 50.0 mg/kg/injection, schedule: Q01DX001 (ip), vehicle: Klucel (hydroxypropylcellulose) (HPC)) was 100 % of control and the T/C (dose: 100.0 mg/kg/injection, schedule: Q01DX001 (ip), vehicle: Klucel (hydroxypropylcellulose) (HPC)) was 102 % of control.

In the case of `CC(C)(NC(=O)N(CCCl)N=O)C(=O)O`, the T/C (dose: 15.0 mg/kg/injection, schedule: Q01DX001 (ip), vehicle: saline with Tween-80) is reported as 103 % of control, the T/C (dose: 23.0 mg/kg/injection, schedule: Q01DX001 (ip), vehicle: saline with Tween-80) is reported as 115 % of control and the T/C (dose: 36.0 mg/kg/injection, schedule: Q01DX001 (ip), vehicle: saline with Tween-80) is reported as 119 % of control. The T/C (dose: 119.0 mg/kg/injection, schedule: Q01DX001 (ip), vehicle: saline with Tween-80) was 227 % of control, the T/C (dose: 178.0 mg/kg/injection, schedule: Q01DX001 (ip), vehicle: saline with Tween-80) was 339 % of control and the T/C (dose: 266.0 mg/kg/injection, schedule: Q01DX001 (ip), vehicle: saline with Tween-80) was 123 % of control. For the same compound, the T/C [7] was 352 % of control.

In the case of `CN(C)CCN=Cc1[nH]c(=S)[nH]c(=O)c1CCc1ccccc1`, the T/C [5] is reported as 93 % of control, the T/C [6] is reported as 97 % of control and the T/C [7] is reported as 95 % of control.

`O=C(CCN1CC1)OC1CCCCCC1` was tested, and the T/C (dose: 6.25 mg/kg/injection, schedule: Q01DX009 (ip), vehicle: Klucel (hydroxypropylcellulose) (HPC)) was 100 % of control, the T/C [10] was 100 % of control and the T/C [11] was 95 % of control. For the same compound, the T/C [1] was 104 % of control and the T/C [2] was 101 % of control.

`O=C1NC2(CCCC2)C(=O)N2CCCC12` (stereo unspecified) was tested, and the T/C [4] was 97 % of control.

`C[N+]1=C(/C=C/c2ccc(O)c3ncccc23)C(C)(C)c2ccccc21` was tested, and the T/C (dose: 7.5 mg/kg/injection, schedule: Q01DX009 (ip), vehicle: saline) was 93 % of control, the T/C (dose: 12.5 mg/kg/injection, schedule: Q01DX001 (ip), vehicle: saline) was 106 % of control and the T/C (dose: 15.0 mg/kg/injection, schedule: Q01DX009 (ip), vehicle: saline) was 109 % of control. For the same compound, the T/C (dose: 25.0 mg/kg/injection, schedule: Q01DX001 (ip), vehicle: saline) was 101 % of control, the T/C (dose: 30.0 mg/kg/injection, schedule: Q01DX009 (ip), vehicle: saline) was 104 % of control and the T/C (dose: 50.0 mg/kg/injection, schedule: Q01DX001 (ip), vehicle: saline) was 113 % of control. The T/C (dose: 60.0 mg/kg/injection, schedule: Q01DX009 (ip), vehicle: saline) was 101 % of control, the T/C [12] was 92 % of control and 117 % of control and the T/C [13] was 112 % of control.

For `O=C1CCCCC1Nc1ccc([N+](=O)[O-])cc1` (stereo unspecified), the T/C [12] was 87 % of control, the T/C [13] was 93 % of control and the T/C (dose: 400.0 mg/kg/injection, schedule: Q01DX001 (ip), vehicle: saline) was 95 % of control.

With `CN(C)/N=C/c1cccc[n+]1C` the T/C (dose: 6.25 mg/kg/injection, schedule: Q01DX009 (ip), vehicle: saline) was 102 % of control, the T/C (dose: 12.5 mg/kg/injection, schedule: Q01DX009 (ip), vehicle: saline) was 106 % of control and the T/C (dose: 25.0 mg/kg/injection, schedule: Q01DX009 (ip), vehicle: saline) was 115 % of control.

In the case of `CCOC(=O)CC/C(=C/c1ccccc1)[N+](=O)[O-]`, the T/C (dose: 25.0 mg/kg/injection, schedule: Q04DX003 (ip), vehicle: saline with Tween-80) is reported as 97 % of control and 104 % of control, the T/C (dose: 50.0 mg/kg/injection, schedule: Q04DX003 (ip), vehicle: saline with Tween-80) is reported as 94 % of control and 98 % of control and the T/C [8] is reported as 106 % of control and 107 % of control and 121 % of control. For the same compound, the T/C [9] was 89 % of control.

For `CCC[CH2][Sn]([CH2]CCC)([S]C#N)[S]C#N`, the T/C (dose: 3.12 mg/kg/injection, schedule: Q04DX002 (ip), vehicle: gum acacia) was 101 % of control, the T/C (dose: 6.25 mg/kg/injection, schedule: Q04DX002 (ip), vehicle: gum acacia) was 96 % of control and the T/C (dose: 12.5 mg/kg/injection, schedule: Q04DX002 (ip), vehicle: gum acacia) was 96 % of control.

In the case of `CC(C)(CCC(=S)N1CCOCC1)c1ccccc1`, the T/C [1] is reported as 101 % of control, the T/C [2] is reported as 102 % of control and the T/C [4] is reported as 102 % of control.

With `CC(O)CN(CCN(CC(C)O)CC(C)O)CCN(CC(C)O)CC(C)O.O=S(=O)([O-])[O-].[Cu+2]` (stereo unspecified) the T/C (dose: 5.0 mg/kg/injection, schedule: Q01DX001 (ip), vehicle: saline) was 102 % of control and the T/C (dose: 10.0 mg/kg/injection, schedule: Q01DX001 (ip), vehicle: saline) was 91 % of control.

`O=C(O)C1(c2ccccc2)SCCS1` was tested, and the T/C [8] was 89 % of control, the T/C [9] was 96 % of control and the T/C (dose: 400.0 mg/kg/injection, schedule: Q04DX003 (ip), vehicle: saline with Tween-80) was 94 % of control.

In the case of `CCCCN(CCC#N)C(N)=O`, the T/C (dose: 100.0 mg/kg/injection, schedule: Q01DX Z (ip), vehicle: methylcellulose (MC)) is reported as 100 % of control.

With `CC(=O)NC1CCc2ccccc2-c2cccc(=O)cc21` (stereo unspecified) the T/C (dose: 0.1 mg/kg/injection, schedule: Q01DX009 (ip), vehicle: Klucel (hydroxypropylcellulose) (HPC)) was 108 % of control, the T/C (dose: 0.2 mg/kg/injection, schedule: Q01DX009 (ip), vehicle: Klucel (hydroxypropylcellulose) (HPC)) was 113 % of control and 124 % of control and the T/C (dose: 0.39 mg/kg/injection, schedule: Q01DX009 (ip), vehicle: Klucel (hydroxypropylcellulose) (HPC)) was 118 % of control. For the same compound, the T/C (dose: 0.78 mg/kg/injection, schedule: Q01DX009 (ip), vehicle: Klucel (hydroxypropylcellulose) (HPC)) was 86 % of control and the T/C (dose: 0.78 mg/kg/injection, schedule: Q01DX009 (ip), vehicle: saline) was 116 % of control.

With `c1ccc(C2OCCCO2)cc1` the T/C [10] was 92 % of control, the T/C [11] was 100 % of control and the T/C [3] was 87 % of control.

With `Cc1ccc2c(ccc(C)[n+]2C)c1` the T/C (dose: 37.5 mg/kg/injection, schedule: Q01DX009 (ip), vehicle: acetone) was 117 % of control, the T/C (dose: 37.5 mg/kg/injection, schedule: Q01DX009 (ip), vehicle: saline) was 110 % of control and 112 % of control and the T/C (dose: 75.0 mg/kg/injection, schedule: Q01DX001 (ip), vehicle: saline) was 100 % of control. For the same compound, the T/C (dose: 75.0 mg/kg/injection, schedule: Q01DX009 (ip), vehicle: saline) was 118 % of control and 121 % of control, the T/C (dose: 150.0 mg/kg/injection, schedule: Q01DX001 (ip), vehicle: saline) was 108 % of control and the T/C (dose: 150.0 mg/kg/injection, schedule: Q01DX009 (ip), vehicle: acetone) was 102 % of control. For the same compound, the T/C (dose: 300.0 mg/kg/injection, schedule: Q01DX001 (ip), vehicle: saline) was 105 % of control.
